Values after ≈ are worked out from the molar mass of the structure shown.
How the values were obtained:
[1] = target: Voltage-gated inwardly rectifying potassium channel KCNH2 (Homo sapiens, UniProt Q12809); test: Inhibition of hERG expressed in CHO cells by QPatch voltage clamp assay
[2] = Kinetic solubility of compound in FaSSIF at pH 6.5 measured after 24 hrs by UPLC/DAD analysis; format: physicochemical; conditions: read-out: Kinetic_solubility
[3] = Toxicity in Wistar-Han rat assessed as effect on spontaneous locomotor activity at 225 mg/kg, po administered as single dose and measured upto 24 hrs by telemetric analysis; format: organism-based; conditions: in vivo
[4] = Toxicity in Wistar-Han rat assessed as effect on arterial pulse pressure at 225 mg/kg, po administered as single dose and measured upto 24 hrs by telemetric analysis; format: organism-based; conditions: in vivo
[5] = Toxicity in Wistar-Han rat assessed as effect on body temperature at 60 mg/kg, po administered as single dose and measured upto 24 hrs by telemetric analysis; format: organism-based; conditions: in vivo
[6] = Toxicity in rhesus monkey assessed as clinical observation at 100 to 800 mg/kg, po administered once daily for 7 days; format: organism-based, Macaca mulatta; conditions: in vivo, 168 h, dose 100-800 mg/kg, time 7 day
[7] = Oral bioavailability in rhesus monkey at 10 mg/kg measured after 24 hrs by LC-MS/MS analysis; format: ADME, organism-based, Macaca mulatta; conditions: in vivo
[8] = Unbound drug concentration in guinea pig plasma at 20 mg/kg, iv administered continuously for 20 mins; format: ADME, organism-based, Cavia porcellus; conditions: in vivo
[9] = Oral bioavailability in Wistar-Han rat at 5 mg/kg measured after 24 hrs by LC-MS/MS analysis; format: ADME, organism-based; conditions: in vivo
[10] = Total clearance in Wistar-Han rat at 3 mg/kg, iv measured after 24 hrs by LC-MS/MS analysis; format: ADME, organism-based; conditions: in vivo
[11] = Toxicity in Wistar-Han rat assessed as effect on heart rate at 60 mg/kg, po administered as single dose and measured upto 24 hrs by telemetric analysis; format: organism-based; conditions: in vivo
[12] = Mutagenicity in Salmonella typhimurium TA1535 at 30 to 5000 ug/plate incubated for 48 hrs in absence of Wistar-Han rat S9 fraction by Ames test; format: toxicity; conditions: salmonella enterica subsp. enterica serovar typhimurium, s9, 48 h
[13] = Toxicity in Wistar-Han rat assessed as effect on systolic blood pressure at 60 mg/kg, po administered as single dose and measured upto 24 hrs by telemetric analysis; format: organism-based; conditions: in vivo
[14] = Mutagenicity in Salmonella typhimurium TA100 at 30 to 5000 ug/plate incubated for 48 hrs in absence of Wistar-Han rat S9 fraction by Ames test; format: toxicity; conditions: salmonella enterica subsp. enterica serovar typhimurium, s9, 48 h
[15] = Intrinsic clearance in Beagle dog at 0.5 mg/kg, iv measured after 24 hrs by LC-MS/MS analysis; format: ADME, organism-based, Canis lupus familiaris; conditions: in vivo
[16] = AUC in Wistar-Han rat at 225 mg/kg, po administered once daily for 7 days; format: ADME, organism-based; parameters: time 7 day, dose 225 mg/kg, route po; conditions: in vivo
[17] = AUCtau in Wistar-Han rat at 48 mg administered twice a day by LC-MS/MS analysis; format: ADME; parameters: dose 48 mg; conditions: in vivo
[18] = AUC in Wistar-Han rat at 40 mg/kg, po administered once daily for 7 days; format: ADME, organism-based; parameters: dose 40 mg/kg, time 7 day, route po; conditions: in vivo
[19] = Unbound drug concentration in guinea pig plasma at 15 mg/kg, iv administered continuously for 20 mins; format: ADME, organism-based, Cavia porcellus; conditions: in vivo
[20] = Toxicity in Wistar-Han rat assessed as effect on heart rate at 225 mg/kg, po administered as single dose and measured after 5 to 8 hrs by telemetric analysis; format: organism-based; conditions: in vivo, time 5-8 hrs
[21] = Protein binding in rat plasma incubated for 4 hrs by equilibrium dialysis method; format: ADME, cell-free; conditions: read-out: PPB (converted)
[22] = Toxicity in Wistar-Han rat assessed as effect on arterial pulse pressure at 60 mg/kg, po administered as single dose and measured upto 24 hrs by telemetric analysis; format: organism-based; conditions: in vivo
[23] = Toxicity in Wistar-Han rat assessed as effect on diastolic blood pressure at 60 mg/kg, po administered as single dose and measured upto 24 hrs by telemetric analysis; format: organism-based; conditions: in vivo
PBMC = test: Inhibition of LRRK2 in rat PBMC assessed as Ser935 dephosphorylation; format: cell-based
[24] = In vivo inhibition of LRRK2 in rhesus monkey assessed as reduction in Ser935 phosphorylation in blood PBMC at 100 to 800 mg/kg, po administered once daily for 7 days; format: functional, Macaca mulatta; conditions: dose 100-800 mg/kg, time 7 day
[25] = AUC in Wistar-Han rat at 750 mg/kg, po administered once daily for 7 days; format: ADME, organism-based; parameters: dose 750 mg/kg, time 7 day, route po; conditions: in vivo
[26] = Toxicity in Wistar-Han rat assessed as effect on body temperature at 225 mg/kg, po administered as single dose and measured upto 24 hrs by telemetric analysis; format: organism-based; conditions: in vivo
[27] = MRT in Beagle dog at 0.5 mg/kg, iv measured after 24 hrs by LC-MS/MS analysis; format: ADME, organism-based, Canis lupus familiaris; conditions: in vivo
Nav1.5 (SCN5A) = Nav1.5 (SCN5A) (Homo sapiens, UniProt Q14524); test: Inhibition of human Nav1.5 expressed in HEK293 cells at 10 uM by QPatch voltage clamp assay relative to control; format: cell-based; conditions: HEK293 cells expressing human Nav1.5
Sequence of Nav1.5 (SCN5A) (Q14524 whole entry): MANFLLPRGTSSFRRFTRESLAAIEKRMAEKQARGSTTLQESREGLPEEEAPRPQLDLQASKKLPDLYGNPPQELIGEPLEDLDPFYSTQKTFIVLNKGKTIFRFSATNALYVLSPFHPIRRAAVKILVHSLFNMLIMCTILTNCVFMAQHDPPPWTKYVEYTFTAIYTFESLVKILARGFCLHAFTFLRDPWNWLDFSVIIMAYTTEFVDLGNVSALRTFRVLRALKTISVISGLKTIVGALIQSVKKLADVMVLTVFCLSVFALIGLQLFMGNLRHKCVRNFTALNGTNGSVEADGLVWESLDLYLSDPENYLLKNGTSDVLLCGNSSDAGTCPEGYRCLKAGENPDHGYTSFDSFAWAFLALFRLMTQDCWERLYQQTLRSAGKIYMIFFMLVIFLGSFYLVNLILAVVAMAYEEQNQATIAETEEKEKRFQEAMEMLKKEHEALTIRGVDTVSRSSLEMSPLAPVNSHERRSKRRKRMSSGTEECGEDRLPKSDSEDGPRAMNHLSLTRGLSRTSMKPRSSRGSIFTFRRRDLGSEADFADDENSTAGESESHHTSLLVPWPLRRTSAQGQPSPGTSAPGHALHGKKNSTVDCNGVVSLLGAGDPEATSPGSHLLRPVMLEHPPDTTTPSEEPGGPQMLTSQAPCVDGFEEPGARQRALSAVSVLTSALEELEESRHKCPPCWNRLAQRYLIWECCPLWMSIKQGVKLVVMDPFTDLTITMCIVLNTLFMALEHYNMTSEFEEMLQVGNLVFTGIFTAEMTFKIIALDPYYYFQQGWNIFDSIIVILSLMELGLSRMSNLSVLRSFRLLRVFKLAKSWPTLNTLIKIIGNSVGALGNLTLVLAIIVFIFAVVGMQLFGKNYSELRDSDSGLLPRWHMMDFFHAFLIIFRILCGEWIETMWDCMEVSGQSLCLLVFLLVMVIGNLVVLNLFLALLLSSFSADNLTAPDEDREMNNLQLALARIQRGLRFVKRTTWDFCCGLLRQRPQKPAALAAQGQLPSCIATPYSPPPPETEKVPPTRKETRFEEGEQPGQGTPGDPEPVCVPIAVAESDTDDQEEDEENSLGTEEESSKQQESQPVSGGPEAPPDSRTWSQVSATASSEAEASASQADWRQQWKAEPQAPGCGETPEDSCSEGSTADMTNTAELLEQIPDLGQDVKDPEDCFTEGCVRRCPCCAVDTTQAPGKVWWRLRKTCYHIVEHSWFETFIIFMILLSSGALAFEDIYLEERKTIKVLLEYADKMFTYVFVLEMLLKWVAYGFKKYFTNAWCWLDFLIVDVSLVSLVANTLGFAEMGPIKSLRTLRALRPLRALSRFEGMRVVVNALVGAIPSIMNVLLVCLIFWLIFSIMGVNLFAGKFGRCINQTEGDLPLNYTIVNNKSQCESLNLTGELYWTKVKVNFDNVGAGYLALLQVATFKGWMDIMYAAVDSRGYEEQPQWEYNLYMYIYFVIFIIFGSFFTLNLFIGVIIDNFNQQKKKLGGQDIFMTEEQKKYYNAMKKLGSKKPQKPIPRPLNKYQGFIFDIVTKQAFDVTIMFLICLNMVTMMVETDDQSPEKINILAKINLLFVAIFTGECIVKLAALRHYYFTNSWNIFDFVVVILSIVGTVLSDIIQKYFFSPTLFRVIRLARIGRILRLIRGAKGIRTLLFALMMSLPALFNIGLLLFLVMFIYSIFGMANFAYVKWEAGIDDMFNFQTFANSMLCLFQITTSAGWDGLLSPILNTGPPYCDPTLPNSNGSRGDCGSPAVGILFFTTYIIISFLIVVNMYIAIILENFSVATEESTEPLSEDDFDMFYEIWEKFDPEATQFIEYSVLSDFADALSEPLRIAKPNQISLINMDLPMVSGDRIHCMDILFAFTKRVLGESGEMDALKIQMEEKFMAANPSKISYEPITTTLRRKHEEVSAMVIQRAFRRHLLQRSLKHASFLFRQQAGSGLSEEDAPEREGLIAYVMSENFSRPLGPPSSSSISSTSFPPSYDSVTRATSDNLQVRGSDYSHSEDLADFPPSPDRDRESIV

[28] = Genotoxicity in human TK6 cells assessed as induction of DNA damage upto 31.9 uM; format: toxicity, cell-based; conditions: tk6, 31.9 µM
[29] = Cardiotoxicity in guinea pig assessed as effect on heart rate at 5 to 20 mg/kg, iv administered continuously for 20 min by ECG analysis; format: toxicity, organism-based, Cavia porcellus; conditions: in vivo, dose 5-20 mg/kg
[30] = AUC in rhesus monkey at 200 mg/kg, po administered once daily for 7 days; format: ADME, organism-based, Macaca mulatta; parameters: dose 200 mg/kg, time 7 day, route po; conditions: in vivo
[31] = Cardiotoxicity in guinea pig assessed as effect on PR interval at 5 to 20 mg/kg, iv administered continuously for 20 min by ECG analysis; format: toxicity, organism-based, Cavia porcellus; conditions: in vivo, dose 5-20 mg/kg
[32] = target: Leucine-rich repeat serine/threonine-protein kinase 2 (Homo sapiens) (UniProt Q5S007); test: Inhibition of LRRK2 in human PBMC using LRRKtide peptide as substrate assessed as Ser935 dephosphorylation preincubated with compound for 15 mins followed by substrate addition and measured after 90 mins in presence of ATP by TR-FRET assay; format: cell-based; conditions: time 105.0 min
Sequence of Leucine-rich repeat serine/threonine-protein kinase 2 (Homo sapiens) (Q5S007 whole entry): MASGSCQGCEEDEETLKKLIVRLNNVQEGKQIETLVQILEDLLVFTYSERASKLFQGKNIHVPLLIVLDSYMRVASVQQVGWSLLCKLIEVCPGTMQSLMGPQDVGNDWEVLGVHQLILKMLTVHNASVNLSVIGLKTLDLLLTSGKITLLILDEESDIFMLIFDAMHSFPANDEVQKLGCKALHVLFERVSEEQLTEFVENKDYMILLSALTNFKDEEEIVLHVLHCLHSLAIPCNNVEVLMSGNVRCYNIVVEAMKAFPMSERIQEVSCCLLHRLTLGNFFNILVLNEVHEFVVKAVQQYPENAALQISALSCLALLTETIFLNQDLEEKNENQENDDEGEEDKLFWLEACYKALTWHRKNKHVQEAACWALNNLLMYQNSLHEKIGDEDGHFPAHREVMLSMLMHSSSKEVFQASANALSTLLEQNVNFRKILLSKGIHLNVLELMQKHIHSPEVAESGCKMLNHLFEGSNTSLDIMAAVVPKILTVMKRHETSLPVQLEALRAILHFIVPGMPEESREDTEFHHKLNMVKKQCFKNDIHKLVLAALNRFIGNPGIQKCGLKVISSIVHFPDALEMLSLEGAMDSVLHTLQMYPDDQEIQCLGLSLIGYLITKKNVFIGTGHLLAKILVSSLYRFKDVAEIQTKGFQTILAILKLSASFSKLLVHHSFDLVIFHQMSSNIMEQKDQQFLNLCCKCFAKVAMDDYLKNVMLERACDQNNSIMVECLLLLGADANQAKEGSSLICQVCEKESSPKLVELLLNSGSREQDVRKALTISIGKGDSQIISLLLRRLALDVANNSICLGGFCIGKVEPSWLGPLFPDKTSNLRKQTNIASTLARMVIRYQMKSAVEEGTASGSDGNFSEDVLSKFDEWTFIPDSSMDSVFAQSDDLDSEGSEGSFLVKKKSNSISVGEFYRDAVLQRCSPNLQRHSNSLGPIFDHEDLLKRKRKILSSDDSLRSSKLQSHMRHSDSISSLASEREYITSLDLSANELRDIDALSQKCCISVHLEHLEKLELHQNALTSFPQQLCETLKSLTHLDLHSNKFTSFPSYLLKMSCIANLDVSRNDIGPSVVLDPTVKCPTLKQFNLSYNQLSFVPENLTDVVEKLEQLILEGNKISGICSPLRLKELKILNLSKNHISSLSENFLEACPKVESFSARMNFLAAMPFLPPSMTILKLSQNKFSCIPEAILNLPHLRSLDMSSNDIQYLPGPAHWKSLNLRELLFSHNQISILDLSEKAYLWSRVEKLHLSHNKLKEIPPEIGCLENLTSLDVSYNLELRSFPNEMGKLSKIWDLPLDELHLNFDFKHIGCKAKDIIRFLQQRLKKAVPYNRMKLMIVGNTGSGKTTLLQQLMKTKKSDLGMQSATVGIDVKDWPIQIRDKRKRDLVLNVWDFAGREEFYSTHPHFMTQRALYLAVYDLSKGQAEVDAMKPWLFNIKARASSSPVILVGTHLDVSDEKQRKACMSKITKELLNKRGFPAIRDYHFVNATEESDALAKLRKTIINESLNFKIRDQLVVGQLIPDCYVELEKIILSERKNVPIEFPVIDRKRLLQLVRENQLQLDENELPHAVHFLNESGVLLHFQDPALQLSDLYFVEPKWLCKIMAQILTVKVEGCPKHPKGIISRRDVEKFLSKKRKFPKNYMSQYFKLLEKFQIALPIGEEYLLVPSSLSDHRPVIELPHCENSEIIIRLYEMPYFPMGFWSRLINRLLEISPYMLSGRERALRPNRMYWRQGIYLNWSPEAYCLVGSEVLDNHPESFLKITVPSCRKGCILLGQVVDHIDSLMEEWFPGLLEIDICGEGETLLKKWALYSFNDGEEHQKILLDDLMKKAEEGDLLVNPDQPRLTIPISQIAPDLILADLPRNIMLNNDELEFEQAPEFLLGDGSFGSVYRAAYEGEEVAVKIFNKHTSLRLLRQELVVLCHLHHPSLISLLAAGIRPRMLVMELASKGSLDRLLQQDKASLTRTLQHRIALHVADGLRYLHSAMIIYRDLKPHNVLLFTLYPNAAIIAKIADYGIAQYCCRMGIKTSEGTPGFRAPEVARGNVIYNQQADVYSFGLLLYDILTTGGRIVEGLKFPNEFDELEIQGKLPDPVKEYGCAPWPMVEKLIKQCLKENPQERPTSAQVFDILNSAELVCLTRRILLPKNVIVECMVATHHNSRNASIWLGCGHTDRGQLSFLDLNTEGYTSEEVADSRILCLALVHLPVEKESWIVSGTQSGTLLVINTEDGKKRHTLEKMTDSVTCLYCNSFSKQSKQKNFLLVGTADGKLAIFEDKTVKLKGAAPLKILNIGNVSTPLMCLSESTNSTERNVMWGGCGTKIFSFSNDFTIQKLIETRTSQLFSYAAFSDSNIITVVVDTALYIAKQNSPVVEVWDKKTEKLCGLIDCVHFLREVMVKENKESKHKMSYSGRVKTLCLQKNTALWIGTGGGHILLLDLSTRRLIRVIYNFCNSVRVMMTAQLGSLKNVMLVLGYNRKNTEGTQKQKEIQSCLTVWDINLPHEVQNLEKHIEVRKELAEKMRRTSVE

[33] = Kinetic solubility of compound in PBS at pH 2 measured after 24 hrs by UPLC/DAD analysis; format: physicochemical; conditions: read-out: Kinetic_solubility
[34] = Protein binding in dog plasma incubated for 4 hrs by equilibrium dialysis method; format: ADME, cell-free, Canis lupus familiaris; conditions: read-out: PPB (converted)
Rattus norvegicus = test: In vivo inhibition of LRRK2 in po dosed Wistar-Han rat assessed as reduction in Ser935 phosphorylation in stratium measured after 2 hrs; format: functional, organism-based; conditions: dose 1-100 mg/kg
[35] = Mutagenicity in Salmonella typhimurium TA98 at 30 to 5000 ug/plate incubated for 48 hrs in absence of Wistar-Han rat S9 fraction by Ames test; format: toxicity; conditions: salmonella enterica subsp. enterica serovar typhimurium, s9, 48 h
[36] = Toxicity in Wistar-Han rat assessed as micronucleus induction in bone marrow at 40 to 750 mg/kg, po administered once daily for 7 days by micronucleus test; format: organism-based; conditions: in vivo, 168 h, dose 40-750 mg/kg, time 7 day
[37] = Oral bioavailability in Beagle dog at 5 mg/kg measured after 24 hrs by LC-MS/MS analysis; format: ADME, organism-based, Canis lupus familiaris; conditions: in vivo
[38] = Toxicity in Wistar-Han rat assessed as histopathological change at 750 mg/kg, po administered once daily for 7 days; format: organism-based; conditions: in vivo, 168 h, time 7 day

solubility kinetic at 24 h [2]: 6 µM (≈ 3.01 µg/mL)
bioavailability [7]: 9%
Cp(f) [8]: 11.9 µM
bioavailability [9]: 56%
clearance [10]: 56 mL/min/kg
CL [15]: 149 mL/min/kg
AUC at 168 h [16]: 88 µM·h
AUC [17]: 3 µM·h
AUC at 168 h [18]: 8.1 µM·h
Cp(f) [19]: 5.69 µM
fraction unbound at 4 h [21]: 0.115
AUC at 168 h [25]: 395 µM·h
MRT [27]: 29 h
AUC at 168 h [30]: 25 µM·h
fIC50 [32]: 2.8 nM
solubility kinetic at 24 h [33]: 182 µM (≈ 91.2 µg/mL)
fraction unbound at 4 h [34]: 0.13
bioavailability [37]: 100%
SMILES: C[C@@]1(N2CCN(c3cc4cc(NC(=O)[C@H]5CC56CCOCC6)ncc4cc3Cl)CC2)COC[C@@H]1O
IC50 [1]: > 60 µM
Activity [3]: Non-Toxic
Activity [4]: Non-Toxic
Activity [5]: Non-Toxic
Activity [6]: Non-Toxic
Activity [11]: Non-Toxic
Activity [12]: Non-Toxic
Activity [13]: Non-Toxic
Activity [14]: Non-Toxic
Activity [20]: Toxic
Activity [22]: Non-Toxic
Activity [23]: Non-Toxic
fIC50 (PBMC): 25 nM
fIC50 [24]: 4.7 nM
Activity [26]: Non-Toxic
inhibition at 10 µM (Nav1.5 (SCN5A)): 23%
Activity [28]: Non-Toxic
Activity [29]: Non-Toxic
Activity [31]: Non-Toxic
inhibition (Rattus norvegicus): Dose-Dependent Effect
Activity [35]: Non-Toxic
Activity [36]: Non-Toxic
Activity [38]: Non-Toxic

Reference: ChEMBL document CHEMBL5370643, “Discovery of MK-1468: A Potent, Kinome-Selective, Brain-Penetrant Amidoisoquinoline LRRK2 Inhibitor for the Potential Treatment of Parkinson's Disease” (J Med Chem, 2023)
